The values that follow come from patent publication US20250188030A1, “Biphenyl and Phenylpyridine Compounds” (Pfizer Inc., priority 2023, published 2025).

Like-named read-outs stand apart in the source and are kept apart here. Some results are limits rather than exact numbers.

Experiment [1] relates to H3K9AC (HT1080 cells). Description: H3K9AC Sandwich ELISA Assay in HT1080 cells (KAT2A primary cell-based screening assay). On the set-up: species or system Human. The procedure: Human fibrosarcoma cell line HT1080 was obtained from American Type Culture Collection (ATCC), Manassas, VA USA, Cat. HT-1080 (ATCC® CCL-121™). Cells were cultured in MEM (Thermo Fisher Scientific/Gibco Life Technologies Cat. #11-095-080) plus 10% (v/v) FBS (Thermo Fisher Scientific/Gibco Life Technologies Cat. #26140-079) and 1% Penicillin-Streptomycin (Thermo Fisher Scientific/Gibco Life Technologies Cat. #15070063) at 37° C. in 5% CO2.
HT1080 cells were trypsinized, cell viability count performed, and cells suspended in complete media at 100,000 cells/ml. Cells were seeded (100 μl/well) into Greiner Bio-One CELLSTAR 96-well polystyrene flat bottom cell culture microplate (Thermo Fisher Scientific Cat. #07-000-162) at a density of 10,000 cells/well. Cells were incubated for 16 hours at 37° C. at 5% CO2. Compound dilution plates were prepared in 96-well, clear U-bottom, polypropylene plates (Corning 3365) in 100% DMSO at 10 mM stock concentration in duplicate, using 10-point serial dilution (1:3). Compounds were diluted to 1:200 in growth medium and 25 μl from intermediate compound plates were added to each well of the cell plates using a Beckman FX liquid handling system such that the highest compound concentration tested was 10 μM final, with a 0.1% final DMSO concentration in the total volume of 125 μl. Plates were incubated for 24 hours at 37° C. and 5% CO2. Plates were centrifuged at 2500 rpm for 5 minutes and medium was removed. 100 μL 0.4N HCL (Thermo Fisher Scientific Cat #SA56-1) was added to each well and plates were shaken for 60 minutes at 4C to lyse cells. 38ul 0.4N Sodium phosphase dibasic pH12.5 (Thermo Fisher Scientific Cat #S375-212) containing 2 mM Sodium Butyrate (Millipore TR1008G) and 3 mM Phenylmethanesulfonyl-fluoride (Sigma 93482) was added to each well to neutralize lysates.
Cell lysate plates were mixed for 5 minutes at room temperature on shaker and immediately frozen at −80C overnight. Cell lysates were thawed and 50 μL/well was transferred to ELISA plates (Total Histone H3 mouse (Cell Signaling Technology Cat #14269) mAb-coated Corning 1×8 strip-well, white, 96-well plates (Corning 2485)). After 2 hours room temperature incubation, plates were washed six times with PBS/0.05% Tween Wash Buffer using a BioTek plate washer. 50 μL of Histone H3K9AC rabbit detection mAb (Cell Signaling Technology Cat #9649S) diluted 1:1000 in blocking buffer (Thermo Fisher Scientific Cat #37542) was added to each well and incubated for 2 hours at room temperature. After washing, 50 μL anti-rabbit IgG, HRP-Linked antibody (Cell Signaling Technology Cat #7074) diluted 1:1000 in blocking buffer was added to each well and incubated for 60 minutes at room temperature. Following incubation, plates were washed as described above. 50 μL of luminescent GLO substrate reagent (R&D System Cat #DY993) was added to each well and incubated for 10 minutes at room temperature. Plates were read on the PHERAstar plate reader using the 96-well with Luminescent reading mode. IC50 values were calculated using a four-parameter fit with GraphPad Prism version 9.5.1 or in-house modified IDBS ActivityBase data analyzing package.
For orientation: In an ELISA, binding on a coated surface is turned into a signal by an enzyme label.

In experiment [2] the target is KAT2A (Homo sapiens (Human), UniProt Q92830). Description: KAT2A acetyltransferase biochemical assay (RapidFire mass spectrometry, AcCoA to CoA).
Sequence of KAT2A (Q92830 whole entry): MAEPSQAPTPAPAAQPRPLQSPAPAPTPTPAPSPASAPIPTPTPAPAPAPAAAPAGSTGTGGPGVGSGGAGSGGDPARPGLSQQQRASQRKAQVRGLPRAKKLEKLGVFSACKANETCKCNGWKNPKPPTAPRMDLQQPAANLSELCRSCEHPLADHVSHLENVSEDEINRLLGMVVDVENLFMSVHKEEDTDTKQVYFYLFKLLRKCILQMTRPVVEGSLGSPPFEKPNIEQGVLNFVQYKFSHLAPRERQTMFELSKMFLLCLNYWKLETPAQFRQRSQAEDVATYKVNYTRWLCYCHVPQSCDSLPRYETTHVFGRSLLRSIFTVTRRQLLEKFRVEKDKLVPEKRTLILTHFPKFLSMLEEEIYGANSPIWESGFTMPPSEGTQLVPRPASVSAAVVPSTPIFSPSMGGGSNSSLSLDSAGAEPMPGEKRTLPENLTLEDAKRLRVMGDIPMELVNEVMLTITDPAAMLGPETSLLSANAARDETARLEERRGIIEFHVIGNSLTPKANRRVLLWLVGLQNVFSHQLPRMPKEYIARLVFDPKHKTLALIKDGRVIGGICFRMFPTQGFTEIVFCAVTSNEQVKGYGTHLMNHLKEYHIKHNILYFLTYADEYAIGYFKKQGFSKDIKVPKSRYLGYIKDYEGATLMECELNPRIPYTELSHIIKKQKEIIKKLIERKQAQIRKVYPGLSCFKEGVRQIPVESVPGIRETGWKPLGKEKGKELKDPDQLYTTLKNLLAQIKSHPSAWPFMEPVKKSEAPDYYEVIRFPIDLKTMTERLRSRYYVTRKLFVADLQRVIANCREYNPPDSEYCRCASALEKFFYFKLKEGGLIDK
[3] abbreviates: Homo sapiens, HT-1080, H3K9AC sandwich ELISA.
The mark [4] stands for this setting: read-out: KAT2A Ki at 1 μM AcCoA, 5 μM H3 1-21 peptide, 0.5 nM KAT2A, 90-minute reaction.

In general, IC50 refers to the concentration that gives 50% inhibition. As usually defined, the Ki is the dissociation constant of the complex between target and ligand, obtained from inhibition or displacement. For the compound `CCS(=O)(=O)NC(=O)[C@H](C)c1ccc(O[C@@H]2CC[C@@H](NC(=O)[C@@]3(F)CNC4(CCC4)C3)C2)c(-c2ccccc2C(C)C)c1` (single isomer, unassigned) [Example C88], the midpoint of inhibition in experiment [1] (setting [3]), the IC50, lay at 10.3 nM. For the same compound, the inhibition constant (Ki) in experiment [2] (setting [4]) turned out to be 0.21 nM.
Compound `CCc1c(F)cccc1-c1cc([C@@H](C)C(=O)NS(=O)(=O)C2(C)CC2)ccc1O[C@@H]1CC[C@@H](NC(=O)[C@@]2(F)CNC3(CCC3)C2)C1` (single isomer, unassigned) [Example C82] returned an IC50 in experiment [1] (H3K9AC sandwich ELISA) of 8.7 nM. Further, the Ki in experiment [2] (setting [4]) stood at 0.07 nM.
`CCS(=O)(=O)NC(=O)C(C)(C)c1ccc(O[C@@H]2CC[C@@H](NC(=O)[C@@]3(F)CNCC4(CCC4)C3)C2)c(-c2cccc(F)c2C2CCC2)c1` (single isomer, unassigned) [Example B32] had an IC50 in experiment [1] (H3K9AC sandwich ELISA) of 18.2 nM. Moreover, the Ki in experiment [2] (setting [4]) came to 0.85 nM.
The like results for `CCc1c(F)cccc1-c1cc([C@@H](C)C(=O)NS(=O)(=O)C2(C)CC2)ccc1O[C@@H]1CC[C@@H](NC(=O)[C@@]2(F)CNC3(CCCC3)C2)C1` (single isomer, unassigned) [Example C87] were, in that order, 1.5 nM and 0.07 nM.
On to `CN1CC2(CCCC2)C[C@@H]1C(=O)N[C@@H]1CC[C@@H](Oc2cccc(C(=O)NS(C)(=O)=O)c2-c2cccc(F)c2C2CCC2)C1` (atropisomer, axis not shown) [Example I11, (3ξ)-N-[(1R,3R)-3-({(1ψ)-2′-cyclobutyl-3′-fluoro-6-[(methanesulfonyl)carbamoyl][1,1′-biphenyl]-2-yl}oxy)cyclopentyl]-2-methyl-2-azaspiro[4.4]nonane-3-carboxamide], for which it took 3130 nM to reach half-maximal inhibition in experiment [1] (setting [3]) (IC50). The Ki in experiment [2] (setting [4]) is 163 nM.
As to `CCS(=O)(=O)NC(=O)Cc1ccc(O[C@@H]2CC[C@@H](NC(=O)[C@@]3(F)CNC4(CCCC4)C3)C2)c(-c2cccc(F)c2C2CCC2)c1` (single isomer, unassigned) [Example C71], the IC50 in experiment [1] (H3K9AC sandwich ELISA) stood at 1 nM. In addition, in experiment [2] (setting [4]), the Ki worked out at 0.01 nM.
The like results for `CC(C)c1ccccc1-c1cc(CC(=O)NS(=O)(=O)C(C)C)ccc1O[C@@H]1CC[C@@H](NC(=O)[C@@]2(F)CNCC(C)(C)C2)C1` (single isomer, unassigned) [Example C74] were, in that order, more than 1000 nM and more than 99.9 nM.
For the compound `CC(C)S(=O)(=O)NC(=O)C(C)(C)c1ccc(O[C@@H]2CC[C@@H](NC(=O)[C@@]3(F)CNC4(CCCC4)C3)C2)c(-c2cccc(F)c2C2CCC2)c1` (single isomer, unassigned) [Example B24], the IC50 in experiment [1] (setting [3]) was found to be 0.9 nM. The Ki in experiment [2] (setting [4]) stood at 0.09 nM.
The like results for `C[C@H](C(=O)NS(C)(=O)=O)c1ccc(OC[C@H]2C[C@H](NC(=O)[C@@H]3CC(C)(C)CN3C)C2)c(-c2cccc(F)c2C2CCC2)c1` (single isomer, unassigned) [Example G3] were, in that order, 20.5 nM and 2.15 nM.
In experiment [1] (H3K9AC sandwich ELISA), `CC1(C)CNC[C@](F)(C(=O)N[C@@H]2CC[C@@H](Oc3ccc(CC(=O)NS(=O)(=O)C4(C)CC4)cc3-c3cccc(F)c3C3CCC3)C2)C1` (single isomer, unassigned) [Example C78] yielded an IC50 of more than 1000 nM. For the same compound, the Ki in experiment [2] (setting [4]) was 0.08 nM.
On to `CC1(C)C[C@@](F)(C(=O)N[C@@H]2CC[C@@H](Oc3ccc(C(=O)O)cc3-c3cccc(F)c3C3CCC3)C2)CN1` (single isomer, unassigned) [Example A13], for which the IC50 in experiment [1] (H3K9AC sandwich ELISA) was more than 1000 nM. Besides, the inhibition constant Ki in experiment [2] (setting [4]) worked out at 96 nM.
Consider `CCC1(CC)C[C@@](F)(C(=O)N[C@@H]2CC[C@@H](Oc3ccc(C(C)(C)C(=O)O)cc3-c3cccc(F)c3C3CCC3)C2)CN1` (single isomer, unassigned) [Example A31], for which half-maximal inhibition in experiment [1] (H3K9AC sandwich ELISA) (IC50) required 9.3 nM.
`CC1(C)CNC[C@](F)(C(=O)N[C@@H]2CC[C@@H](Oc3cccc(CC(=O)O)c3-c3cccc(F)c3C3CCC3)C2)C1` (atropisomer, axis not shown) [Example H13, [(1 ψ)-2′-cyclobutyl-3′-fluoro-6-{[(1R,3R)-3-{[(3ξ)-3-fluoro-5,5-dimethylpiperidine-3-carbonyl]amino}cyclopentyl]oxy}[1,1′-biphenyl]-2-yl]acetic acid]: the IC50 in experiment [1] (H3K9AC sandwich ELISA) was 9.7 nM.
`CN1CC(C)(C)C[C@H]1C(=O)N[C@@H]1CC[C@@H](Oc2ccc(C(C)(C)c3noc(=O)[nH]3)cc2-c2cccc(F)c2C2CCC2)C1` [Example D17, N-[(1R,3R)-3-({2′-cyclobutyl-3′-fluoro-5-[2-(5-oxo-4,5-dihydro-1,2,4-oxadiazol-3-yl)propan-2-yl][1,1′-biphenyl]-2-yl}oxy)cyclopentyl]-1,4,4-trimethyl-L-prolinamide] had an IC50 in experiment [1] (setting [3]) of 14.4 nM. For the same compound, in experiment [2] (setting [4]), the Ki turned out to be 2.64 nM.
The like results for `CC1(S(=O)(=O)NC(=O)Cc2ccc(O[C@@H]3CC[C@@H](NC(=O)[C@@]4(F)CNC5(CCCC5)C4)C3)c(-c3cccc(F)c3C3CCC3)c2)CC1` (single isomer, unassigned) [Example C69] were, in that order, 0.6 nM and 0.04 nM.
`CC(C)(C(=O)O)c1ccc(O[C@@H]2CC[C@@H](NC(=O)[C@@]3(F)CNCC4(CCC4)C3)C2)c(-c2cccc(F)c2C2CCC2)c1` (single isomer, unassigned) [Example A28]: the IC50 in experiment [1] (H3K9AC sandwich ELISA) was determined as 53.6 nM. Besides, the inhibition constant Ki in experiment [2] (setting [4]) was found to be 1.41 nM.
Regarding `CN1CC(C)(C)C[C@H]1C(=O)N[C@@H]1CC[C@@H](Oc2cccc(CC(=O)O)c2-c2ccccc2C2CCC2)C1` (atropisomer, axis not shown) [Example H7], the IC50 in experiment [1] (H3K9AC sandwich ELISA) is 340 nM.
Regarding `CC1(C)C[C@@H](C(=O)N[C@@H]2CC[C@@H](Oc3cccc(C(=O)O)c3-c3cccc(F)c3C3CCC3)C2)CN1` (atropisomer, axis not shown) [Example H8, (1ψ)-2′-cyclobutyl-6-{[(1R,3R)-3-{[(3ξ)-5,5-dimethylpyrrolidine-3-carbonyl]amino}cyclopentyl]oxy}-3′-fluoro[1,1′-biphenyl]-2-carboxylic acid], the inhibition constant (Ki) in experiment [2] (setting [4]) is 348 nM.
On to `CCc1c(F)cccc1-c1cc(CC(=O)NS(=O)(=O)C(C)C)ccc1O[C@@H]1CC[C@@H](NC(=O)[C@@]2(F)CNCC(C)(C)C2)C1` (single isomer, unassigned) [Example C66], for which the Ki in experiment [2] (setting [4]) was 11.8 nM.
On the same count and under the same terms, next, `CC1(C)CNC[C@](F)(C(=O)N[C@@H]2CC[C@@H](Oc3ccc(CC(=O)O)cc3-c3cccc(F)c3C3CCC3)C2)C1` (single isomer, unassigned) [Example A24]: 15.4 nM; `CC1(S(=O)(=O)NC(=O)Cc2ccc(O[C@@H]3CC[C@@H](NC(=O)[C@@]4(F)CNC5(CCCC5)C4)C3)c(-c3cccc(F)c3C3CCC3)c2)CC1` (single isomer, unassigned) [Example C68]: 13.2 nM.
Consider `CCC1(CC)C[C@@](F)(C(=O)N[C@@H]2CC[C@@H](Oc3ccc(C(C)(C)C(=O)O)cc3-c3cccc(F)c3C3CCC3)C2)CN1` (single isomer, unassigned) [Example A30], for which, in experiment [1] (H3K9AC sandwich ELISA), the IC50 was more than 1000 nM.
On to `C[C@H](C(=O)O)c1ccc(O[C@@H]2CC[C@@H](NC(=O)[C@@]3(F)CNC4(CCC4)C3)C2)c(-c2cccc(F)c2C2CCC2)c1` (single isomer, unassigned) [Example A18], for which the Ki in experiment [2] (setting [4]) was 751 nM.
In the case of `CCn1cc(-c2ccc(O[C@@H]3CC[C@@H](NC(=O)[C@@]4(F)CNC5(CCC5)C4)C3)c(-c3cccc(F)c3C3CCC3)c2)c(C(=O)O)n1` (single isomer, unassigned) [Example J14], the Ki in experiment [2] (setting [4]) was 284 nM.
For the compound `CC(C)S(=O)(=O)NC(=O)C(C)(C)c1ccc(O[C@@H]2CC[C@@H](NC(=O)[C@@]3(F)CNC4(CCC4)C3)C2)c(-c2cccc(F)c2C2CCC2)c1` (single isomer, unassigned) [Example B3], the Ki in experiment [2] (KAT2A Ki at 1 μM AcCoA, 5 μM H3 1-21 peptide, 0.5 nM KAT2A, 90-minute reaction) came to 236 nM.
Regarding `C[C@H](C(=O)O)c1nn(C)cc1-c1ccc(O[C@@H]2CC[C@@H](NC(=O)[C@]3(F)CNC4(CCC4)C3)C2)c(-c2cccc(F)c2C2CCC2)c1` (single isomer, unassigned) [Example J3], the Ki in experiment [2] (setting [4]) is 842 nM.
